ChEMBL document CHEMBL4411327, “Discovery of pyrimidine nucleoside dual prodrugs and pyrazine nucleosides as novel anti-HCV agents” (Bioorg Med Chem, 2019)

How the values were obtained:
[1] = system: Hepatitis C virus; experiment: Antiviral activity against HCV genotype 1b replicon infected in human HuH7 cells at 100 uM after 72 hrs by bright-glo luciferase reporter gene assay relative to control; type: functional, Hepacivirus hominis; conditions: subtype 1b, Huh-7, 72 h
[2] = Cytotoxicity against human HuH7 cells infected with HCV genotype 1b replicon after 72 hrs by CellTiter-Fluor reagent based fluorescence assay; type: cell-based, Huh-7
[3] = system: Hepatitis C virus; experiment: Antiviral activity against HCV genotype 1b replicon infected in human HuH7 cells at 10 uM after 72 hrs by bright-glo luciferase reporter gene assay relative to control; type: functional, Hepacivirus hominis; conditions: subtype 1b, Huh-7, 72 h
[4] = system: Hepatitis C virus; experiment: Antiviral activity against HCV genotype 1b replicon infected in human HuH7 cells after 72 hrs by bright-glo luciferase reporter gene assay; type: functional, organism-based, Hepacivirus hominis; conditions: subtype 1b, Huh-7, 72 h
[5] = system: Hepatitis C virus; experiment: Antiviral activity against HCV genotype 1b replicon infected in human HuH7 cells at 20 uM after 72 hrs by bright-glo luciferase reporter gene assay relative to control; type: functional, Hepacivirus hominis; conditions: subtype 1b, Huh-7, 72 h
[6] = Stability in human plasma assessed as parent compound remaining at 40 uM measured immediately by LC-MS/MS analysis; type: ADME, cell-free; conditions: read-out: Stability
[7] = Half life in human plasma at 40 uM by LC-MS/MS analysis; type: ADME, cell-free
[8] = Stability in human plasma assessed as parent compound remaining at 40 uM measured after 5 hrs by LC-MS/MS analysis; type: ADME, cell-free; conditions: read-out: Stability
[9] = Stability in human liver microsomes assessed as parent compound remaining at 0.1 uM preincubated with MgCl2 for 10 mins followed by NADPH addition measured after 17 mins by LC-MS/MS analysis; type: ADME, Microsome
[10] = Metabolic bioavailability in human liver microsomes at 0.1 uM preincubated with MgCl2 for 10 mins followed by NADPH addition measured within 60 mins by LC-MS/MS analysis; type: ADME, Microsome
[11] = Stability in human plasma assessed as parent compound remaining at 40 uM measured after 0.5 hrs by LC-MS/MS analysis; type: ADME, cell-free; conditions: read-out: Stability
[12] = Stability in human plasma assessed as parent compound remaining at 40 uM measured after 2 hrs by LC-MS/MS analysis; type: ADME, cell-free; conditions: read-out: Stability
[13] = Half life in human liver microsomes at 0.1 uM preincubated with MgCl2 for 10 mins followed by NADPH addition by LC-MS/MS analysis; type: ADME, Microsome
[14] = Stability in human liver microsomes assessed as parent compound remaining at 0.1 uM preincubated with MgCl2 for 10 mins followed by NADPH addition measured after 60 mins by LC-MS/MS analysis; type: ADME, Microsome; conditions: read-out: Stability
[15] = Stability in human liver microsomes assessed as parent compound remaining at 0.1 uM preincubated with MgCl2 for 10 mins followed by NADPH addition measured after 7 mins by LC-MS/MS analysis; type: ADME, Microsome; conditions: read-out: Stability
[16] = Stability in human plasma assessed as parent compound remaining at 40 uM measured after 1 hr by LC-MS/MS analysis; type: ADME, cell-free; conditions: read-out: Stability
[17] = Stability in human liver microsomes assessed as parent compound remaining at 0.1 uM preincubated with MgCl2 for 10 mins followed by NADPH addition measured immediately by LC-MS/MS analysis; type: ADME, Microsome; conditions: read-out: Stability
[18] = Stability in human liver microsomes assessed as parent compound remaining at 0.1 uM preincubated with MgCl2 for 10 mins followed by NADPH addition measured after 30 mins by LC-MS/MS analysis; type: ADME, Microsome
[19] = liver microsomes, read-out: Stability

Compound | CC50 at 72 h [2] | EC50 [4] | other results
C[C@@]1(O)[C@H](O)[C@@H](CO)O[C@H]1n1ccnc(N)c1=O | > 100 µM | – | inhibition at 100 µM [1]: 22.3%
CC(C)OC(=O)[C@H](C)N[P@](=O)(OC[C@H]1O[C@@H](n2ccc(=O)n(C(C)OC(=O)OC3CCCCC3)c2=O)[C@](C)(F)[C@@H]1O)Oc1ccccc1 (stereo not given in full) | > 10 µM | 0.5 µM | inhibition at 10 µM [3]: 99.9%
CC(C)OC(=O)[C@H](C)N[P@](=O)(OC[C@H]1O[C@@H](n2ccnc(N)c2=O)[C@](C)(O)[C@@H]1O)Oc1ccccc1 | 59.6 µM | 24.4 µM | inhibition at 100 µM [1]: 99.8%
C[C@@]1(O)[C@H](O)[C@@H](CO)O[C@H]1n1cc(Br)ncc1=O | > 100 µM | > 100 µM | –
CCNc1nccn([C@@H]2O[C@H](CO)[C@@H](O)[C@@]2(C)O)c1=O | > 100 µM | > 100 µM | –
CC(C)OC(=O)[C@H](C)N[P@](=O)(OC[C@H]1O[C@@H](n2ccc(Oc3ccccc3)nc2=O)[C@](C)(F)[C@@H]1O)Oc1ccccc1 | > 20 µM | > 20 µM | inhibition at 20 µM [5]: 0%
C[C@]1(CO)O[C@@H](n2ccnc(N)c2=O)[C@H](O)[C@@H]1O | > 100 µM | > 100 µM | –
CC(C)OC(=O)[C@H](C)N[P@](=O)(OC[C@H]1O[C@@H](n2cc(C(N)=O)ncc2=O)[C@](C)(O)[C@@H]1O)Oc1ccccc1 | > 100 µM | > 100 µM | –
CCNc1nccn([C@@H]2O[C@](C)(CO)[C@@H](O)[C@H]2O)c1=O | > 100 µM | > 100 µM | –
CCOC(=O)OCn1c(=O)ccn([C@@H]2O[C@H](CO[P@@](=O)(N[C@@H](C)C(=O)OC(C)C)Oc3ccccc3)[C@@H](O)[C@@]2(C)F)c1=O | > 10 µM | 0.21 µM | inhibition at 10 µM [3]: 99.3%
C=CCNc1ccn([C@@H]2O[C@H](CO[P@@](=O)(N[C@@H](C)C(=O)OC(C)C)Oc3ccccc3)[C@@H](O)[C@@]2(C)F)c(=O)n1 | > 20 µM | > 20 µM | inhibition at 20 µM [5]: 0%
C=CCOc1ccn([C@@H]2O[C@H](CO[P@@](=O)(N[C@@H](C)C(=O)OC(C)C)Oc3ccccc3)[C@@H](O)[C@@]2(C)F)c(=O)n1 | > 20 µM | > 20 µM | inhibition at 20 µM [5]: 0%
C[C@@]1(O)[C@H](O)[C@@H](CO)O[C@H]1n1cc(C(N)=O)ncc1=O | > 100 µM | > 100 µM | –
CC(C)OC(=O)OC(C)n1c(=O)ccn([C@@H]2O[C@H](CO[P@@](=O)(N[C@@H](C)C(=O)OC(C)C)Oc3ccccc3)[C@@H](O)[C@@]2(C)F)c1=O (stereo not given in full) | > 10 µM | 0.22 µM | remaining at 0 h, 40 µM [6]: 100%; half-life at 40 µM [7]: 984 min; remaining at 5 h, 40 µM [8]: 78.9%; Stability ([9]; microsomes, 17 min, 0.1 µM): 12.8%; Fh at 1 h, 0.1 µM [10]: 11.2%; inhibition at 10 µM [3]: 99.8%; remaining at 0.5 h, 40 µM [11]: 92.8%; remaining at 2 h, 40 µM [12]: 85.3%; t1/2 ([13]; microsomes, 0.1 µM): 13.5 min; remaining at 1 h, 0.1 µM [14]: 0%; remaining at 7 min, 0.1 µM [15]: 51.2%; remaining at 1 h, 40 µM [16]: 90%; remaining at 0 min, 0.1 µM [17]: 100%; Stability ([18]; microsomes, 0.5 h, 0.1 µM): 2.1%
C[C@]1(CO)O[C@@H](n2ccnc(C(N)=O)c2=O)[C@H](O)[C@@H]1O | > 100 µM | > 100 µM | –
C[C@@]1(O)[C@H](O)[C@@H](CO)O[C@H]1n1cc(Cl)nc(C(N)=O)c1=O | > 100 µM | 7.3 µM | –

Compound | CC50 at 72 h [2] | EC50 [4] | other results
CCOC(=O)n1c(=O)ccn([C@@H]2O[C@H](CO[P@@](=O)(N[C@@H](C)C(=O)OC(C)C)Oc3ccccc3)[C@@H](O)[C@@]2(C)F)c1=O | > 10 µM | 0.65 µM | inhibition at 10 µM [3]: 100%
CCNc1nccn([C@@H]2O[C@](C)(CO[P@@](=O)(N[C@@H](C)C(=O)OC(C)C)Oc3ccccc3)[C@@H](O)[C@H]2O)c1=O | > 100 µM | > 100 µM | –
CC(C)OC(=O)[C@@H](C)N[P@@](=O)(OC[C@H]1O[C@@H](n2ccnc(N)c2=O)[C@](C)(O)[C@@H]1O)Oc1ccccc1 | > 100 µM | > 100 µM | –
CCCCCOC(=O)n1c(=O)ccn([C@@H]2O[C@H](CO[P@@](=O)(N[C@@H](C)C(=O)OC(C)C)Oc3ccccc3)[C@@H](O)[C@@]2(C)F)c1=O | > 10 µM | 0.7 µM | inhibition at 10 µM [3]: 99.9%
COc1ccn([C@@H]2O[C@H](CO[P@@](=O)(N[C@@H](C)C(=O)OC(C)C)Oc3ccccc3)[C@@H](O)[C@@]2(C)F)c(=O)n1 | > 20 µM | > 20 µM | inhibition at 20 µM [5]: 0%
CCNc1nccn([C@@H]2O[C@H](CO[P@@](=O)(N[C@@H](C)C(=O)OC(C)C)Oc3ccccc3)[C@@H](O)[C@@]2(C)O)c1=O | > 100 µM | > 100 µM | –
CC(C)OC(=O)[C@H](C)N[P@](=O)(OC[C@H]1O[C@@H](n2ccc(=O)n(C(=O)OCc3ccccc3)c2=O)[C@](C)(F)[C@@H]1O)Oc1ccccc1 | > 10 µM | 0.5 µM | inhibition at 10 µM [3]: 99.3%
CCOC(=O)OC(C)n1c(=O)ccn([C@@H]2O[C@H](CO[P@@](=O)(N[C@@H](C)C(=O)OC(C)C)Oc3ccccc3)[C@@H](O)[C@@]2(C)F)c1=O (stereo not given in full) | > 10 µM | 0.22 µM | inhibition at 10 µM [3]: 99.6%
CC(C)OC(=O)[C@H](C)N[P@](=O)(OC[C@@]1(C)O[C@@H](n2ccnc(N)c2=O)[C@H](O)[C@@H]1O)Oc1ccccc1 | > 100 µM | 19.5 µM | inhibition at 100 µM [1]: 85.1%
CC(C)OC(=O)[C@H](C)N[P@](=O)(OC[C@H]1O[C@@H](n2ccc(OC3CC3)nc2=O)[C@](C)(F)[C@@H]1O)Oc1ccccc1 | > 20 µM | > 20 µM | inhibition at 20 µM [5]: 0%
C#CCOc1ccn([C@@H]2O[C@H](CO[P@@](=O)(N[C@@H](C)C(=O)OC(C)C)Oc3ccccc3)[C@@H](O)[C@@]2(C)F)c(=O)n1 | > 20 µM | 12.2 µM | inhibition at 20 µM [5]: 46.9%
CC(C)=CCOc1ccn([C@@H]2O[C@H](CO[P@@](=O)(N[C@@H](C)C(=O)OC(C)C)Oc3ccccc3)[C@@H](O)[C@@]2(C)F)c(=O)n1 | > 20 µM | 0.2 µM | inhibition at 20 µM [5]: 99.9%
CC(C)COC(=O)n1c(=O)ccn([C@@H]2O[C@H](CO[P@@](=O)(N[C@@H](C)C(=O)OC(C)C)Oc3ccccc3)[C@@H](O)[C@@]2(C)F)c1=O | > 10 µM | 0.4 µM | remaining at 0 h, 40 µM [6]: 100%; half-life at 40 µM [7]: 18 min; remaining at 5 h, 40 µM [8]: 0%; remaining at 17 min, 0.1 µM [9, 19]: 0%; Fh at 1 h, 0.1 µM [10]: 1.33%; inhibition at 10 µM [3]: 99.9%; remaining at 0.5 h, 40 µM [11]: 87.3%; remaining at 2 h, 40 µM [12]: 17.2%; half-life at 0.1 µM ([13]; liver microsomes): 1.44 min; remaining at 1 h, 0.1 µM [14]: 0%; remaining at 7 min, 0.1 µM [15]: 3.5%; remaining at 1 h, 40 µM [16]: 61%; remaining at 0 min, 0.1 µM [17]: 100%; remaining at 0.5 h, 0.1 µM [18, 19]: 0%
CC(C)OC(=O)[C@H](C)N[P@](=O)(OC[C@H]1O[C@@H](n2ccc(OCc3ccccc3)nc2=O)[C@](C)(F)[C@@H]1O)Oc1ccccc1 | > 20 µM | > 20 µM | inhibition at 20 µM [5]: 0%
CC=CCOc1ccn([C@@H]2O[C@H](CO[P@@](=O)(N[C@@H](C)C(=O)OC(C)C)Oc3ccccc3)[C@@H](O)[C@@]2(C)F)c(=O)n1 (mixture of isomers) | > 100 µM | 30.3 µM | inhibition at 100 µM [1]: 66.3%
CC(C)OC(=O)[C@H](C)N[P@](=O)(OC[C@H]1O[C@@H](n2ccc(=O)[nH]c2=O)[C@](C)(F)[C@@H]1O)Oc1ccccc1 [SOFOSBUVIR] | > 20 µM | 0.18 µM | inhibition at 20 µM [5]: 99.9%
